The source of these data is article PMC10817097, “Caffeic Acid Phosphanium Derivatives: Potential Selective Antitumor, Antimicrobial and Antiprotozoal Agents” (International Journal of Molecular Sciences, 2024).

For data set [1], the system named is Candida albicans CCM 8267. In words: Broth dilution MIC and MFC for yeasts. The format is cell-based. As to conditions: for MIC: CCM8267, C. albicans CCM 8267; for MFC: CCM8267, C. albicans CCM 8267, inactivating 99.9% of inoculum. As for the experimental part:
The antimicrobial activity of caffeic acid and its semi-synthetic derivates was tested against Gram-positive (Staphylococcus aureus CCM 4750, methicillin-resistant; Staphylococcus aureus CCM 4223, methicillin-susceptible; Enterococcus faecalis CCM 4224) and Gram-negative bacteria (Pseudomonas aeruginosa CCM 3955; Escherichia coli CCM 3954; Klebsiella pneumoniae CCM 4415; Proteus mirabilis CCM 7188), and one strain of a yeast Candida albicans (CCM 8267). Microbial strains were purchased from the Czech Collection of Microorganisms, Brno, Czech Republic, and preserved in aliquots in cryoprotective media at −20 °C until the testing. Revival of cryoprotected bacteria took place by overnight cultivation on blood agar and an additional passage on blood agar. Minimal inhibitory concentrations (MIC) against bacteria were detected by broth microdilution test in sterile 96-well U-shaped microtiter plates (Roll s.a.s., Piove di Sacco, Italy) according to the EUCAST recommendations. The test was performed in 100 μL volumes in microtiter plate wells with a final bacterial concentration of 5 × 10^5 CFU·mL^−1. Antifungal activity testing was performed according to the EUCAST-recommended method for the determination of broth dilution minimum inhibitory concentrations of antifungal agents for yeasts, with some modifications. The final yeast concentration in the test wells was 10^4 CFU·mL^−1. The minimal bactericidal/fungicidal concentrations (MBC/MFC) were detected by point-inoculation of 5 μL aliquots from test wells without visible growth on solid agar media free of antimicrobials. Mueller–Hinton broth and agar were used for bacteria, and Sabouraud dextrose broth and agar for fungi (OXOID, Basingstoke, Hampshire, UK). The tested agents were dissolved in 50% ethanol, and serial dilutions were prepared in the test medium to obtain final concentrations ranging from 5000 to 5 μg·mL^−1, which corresponds to 27,753—54 μM for caffeic acid, 7251—14 μM for CAP 6, 6967—14 μM for CAP 8, 6705—13 μM for CAP 10 and 6462—13 μM for CAP 12. Wells with media free of bacteria served as sterility control and wells with bacteria without antimicrobial agents were used as growth control. The MIC was determined to be the lowest concentration of the antimicrobial agent inhibiting the growth of the tested microorganism, and the MBC/MFC was determined to be the lowest concentration, inactivating 99.9% of microbial inoculum. All tests were performed in three independent runs to exclude possible excessive values due to permissible measurement error.

In data set [2] the test system is non-pathogenic Neff's strain of Acanthamoeba castellanii. Set-up: method as in Sifaoui et al. (2017) 44. Particulars: A. castellanii Neff, 96 h of incubation, ref Sifaoui et al. (2017) 44; cited from earlier work.
Details of data set [3]: method as in PMID 11743793. Particulars: cited from earlier work.
Data set [4] concerns Acanthamoeba trophozoites. In words: Amoebicidal activity assay, both strains. The format is cell-based. The procedure:
The activity against two clinical isolates of free-living amoebae, Acanthamoeba lugdunensis (strain AcaVNAK02) and Acanthamoeba quina (strain AcaVNAK03), both belonging to the T4 genotype, was tested in vitro as previously described. The trophozoites were cultivated in 25 cm^2 tissue culture flasks under axenic conditions in peptone-yeast extract-glucose medium (PYG). The cultivation was carried out under aerobic conditions at laboratory temperature. For the experiments, a fresh 72 h culture was used. Acanthamoebae adherent to flasks represented the trophozoite form and was used in the subsequent assay. Experiments were carried out in 96-well microtiter plates under sterile conditions at 37 °C. Each well was seeded with 100 µL (2 × 10^5 cells mL^−1) of a trophozoite suspension. Then, 100 µL of a freshly prepared medium containing a tested compound at 6 different concentrations was added to all wells, except for the untreated control wells that received 100 µL of the pure medium. Each compound was tested at final concentrations of 500, 250, 125, 62.5, 31.25, and 15.6 µM. The reduction of trophozoites was recorded after 24 h by counting the surviving cells in a Bürker–Türk hemocytometer. […] The viability of trophozoites was determined by trypan blue exclusion. […]

For data set [5], the system named is the other tested bacteria and the strain of Candida albicans. The data set can be described thus: MIC/MBC, other tested bacteria and Candida albicans. The format is cell-based. Particulars: listed as caffeic acid. The procedure: The antimicrobial activity of caffeic acid and its semi-synthetic derivates was tested against Gram-positive (Staphylococcus aureus CCM 4750, methicillin-resistant; Staphylococcus aureus CCM 4223, methicillin-susceptible; Enterococcus faecalis CCM 4224) and Gram-negative bacteria (Pseudomonas aeruginosa CCM 3955; Escherichia coli CCM 3954; Klebsiella pneumoniae CCM 4415; Proteus mirabilis CCM 7188), and one strain of a yeast Candida albicans (CCM 8267). Microbial strains were purchased from the Czech Collection of Microorganisms, Brno, Czech Republic, and preserved in aliquots in cryoprotective media at −20 °C until the testing. Revival of cryoprotected bacteria took place by overnight cultivation on blood agar and an additional passage on blood agar. Minimal inhibitory concentrations (MIC) against bacteria were detected by broth microdilution test in sterile 96-well U-shaped microtiter plates (Roll s.a.s., Piove di Sacco, Italy) according to the EUCAST recommendations. The test was performed in 100 μL volumes in microtiter plate wells with a final bacterial concentration of 5 × 10^5 CFU·mL^−1. […] The minimal bactericidal/fungicidal concentrations (MBC/MFC) were detected by point-inoculation of 5 μL aliquots from test wells without visible growth on solid agar media free of antimicrobials. […]

Values after ≈ are worked out from the molar mass of the structure shown. Values joined by “and” are separate entries in the source; they are usually repeats but may differ in a detail not shown here. Equal entries are not always repeated. Where two headings read alike, the source gives them in different places. Where only a bound is given, the exact number is not on record here.

In general, MIC refers to the lowest concentration found to suppress growth. Read a low MIC as inhibition by little substance. What is called MFC is the smallest concentration meeting the test's criterion for killing the fungus. What is called EC50 is the midpoint of the concentration-response curve. Read a low EC50 as greater potency. `O=C(O)C=Cc1ccc(O)c(O)c1` [CA, 3-(3,4-dihydroxyphenyl)-2-propenoic acid, reference compound]: in data set [1], the lowest concentration to inhibit growth (MIC) was 13900 µM (≈ 2500 µg/mL) and the MFC came out at 13900 µM (≈ 2500 µg/mL). Moreover, the “IC50 (50% growth inhibition)” value in data set [2] is given as greater than 100 µg/mL. Moreover, the “plasma levels of caffeic acid” value in data set [3] (1 h after consumption of 300 mL red wine (about 2.8 mg caffeic acid)) is 4.9 ± 0.3 ng/mL. The “plasma levels of caffeic acid” value in data set [3] (1 h after consumption of 300 mL red wine, approx. conversion) was “approx. 27.2 nM”. In data set [4] (Acanthamoeba, after 24 h), the EC50 was no less than 3 mM. For the same molecule, in data set [5], the MIC/MBC result was “exceeded 6900 μM and > 1200 μg/mL”.

In data set [1], `CC(=O)Oc1ccc(/C=C/C(=O)OCCCCCC[P+](c2ccccc2)(c2ccccc2)c2ccccc2)cc1OC(C)=O` [CAP 6, P,P,P-triphenyl-6-{(2E)-3-[3,4-(diacetyloxy)penyl]prop-2-enoyloxy}hexane-1-phosphanium bromide] showed an MIC of 57 µM and an MFC of 57 µM. The “times higher inhibitory activity than phosphanium salts of rosmarinic acid” value in data set [4] (comparison to compounds of ref 15) is on record as “more than 15 times”.

Consider `CC(=O)Oc1ccc(/C=C/C(=O)OCCCCCCCC[P+](c2ccccc2)(c2ccccc2)c2ccccc2)cc1OC(C)=O` [CAP 8, P,P,P-triphenyl-8-{(2E)-3-[3,4-(diacetyloxy)penyl]prop-2-enoyloxy}okctane-1-phosphanium bromide], for which, in data set [1], the MIC was determined as 27 µM and the MFC is 27 µM.

Regarding `CC(=O)Oc1ccc(/C=C/C(=O)OCCCCCCCCCC[P+](c2ccccc2)(c2ccccc2)c2ccccc2)cc1OC(C)=O` [CAP 10, P,P,P-triphenyl-10-{(2E)-3-[3,4-(diacetyloxy)penyl]prop-2-enoyloxy}decane-1-phosphanium bromide], in data set [1], the MIC worked out at 13 µM and the MFC is 13 µM.

In data set [1], `CC(=O)Oc1ccc(/C=C/C(=O)OCCCCCCCCCCCC[P+](c2ccccc2)(c2ccccc2)c2ccccc2)cc1OC(C)=O` [CAP 12, P,P,P-triphenyl-12-{(2E)-3-[3,4-(diacetyloxy)penyl]prop-2-enoyloxy}dodecane-1-phosphanium bromide] returned an MIC of 25 µM and an MFC of 25 µM.
